Assay results reported in patent US20250090550A1, “INJECTABLE COMPOSITION COMPRISING CYTOLYTIC COMPOUND IN GEL, GEL-FORMING SOLUTION OR GEL-FORMING SUSPENSION FOR REDUCTION OF FAT” (GLONOVA PHARMA CO., LTD., priority 2022, published 2025).
Structures can show the parent of a compound that is named as a salt.

Experiments:
fat tissue = conditions: after injection of deoxycholic acid solution; cited from earlier work
[1] = Gel formation of mixtures added to 0.9% saline, placed at 37° C.; assay type: physicochemical
Procedure: In the following examples, DCA-Na solutions were mixed with other components to prepare an injectable composition. Unless otherwise stated, the requirements for the final concentration of DCA-Na in the obtained compositions were ≥70% of initial solutions (≥36.96 mg/mL for 5% solution, ≥7.39 mg/mL for 1% solution). The appearances after mixing DCA-Na with other components were observed after placing at 25, 37 and 42° C. for 20, 30, 45, 60 and 120 minutes. 200 μL of the mixtures were also added to 200 μL 0.9% saline respectively and their appearances were also observed after placing at 37° C. for 20, 30, 45, 60 and 120 minutes. Photos were taken and showing in the figures.

| Compound | permeation into fat tissue after injection (fat tissue) | suitable concentration of lidocaine HCl mixing with 1% DCA-Na solution ([1]; mixtures of 1% DCA-Na and LA + lidocaine HCl) | tolerable concentration of lidocaine HCl mixing with 5% DCA-Na solution ([1]; mixtures of 5% DCA-Na and LA in lidocaine HCl) |
| --- | --- | --- | --- |
| C[C@H](CCC(=O)O)[C@H]1CC[C@H]2[C@@H]3CC[C@@H]4C[C@H](O)CC[C@]4(C)[C@H]3C[C@H](O)[C@]12C [deoxycholic acid, Deoxycholic acid] | more than 1 centimeter | – | – |
| CCN(CC)CC(=O)Nc1c(C)cccc1C [lidocaine HCl] | – | around 3 mg/mL | up to 6 mg/mL |
